Source: patent US20100298141A1, “SUBSTITUTED PYRIDINE N-OXIDE HERBICIDES” (E. I. DU PONT DE NEMOURS AND COMPANY, priority 2007, published 2010)

Experiments:
corn = assay: Test A pre-/postemergence greenhouse test; assay type: in vivo, Zea mays; conditions: for Plant response rating, Corn: 0 to 100 scale where 0 is no effect and 100 is complete control; for Corn plant response rating: 0 to 100 scale
Method in brief: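 Pre: directed soil spray on seeded loam/sand. Post: foliar spray, plants 2–10 cm, 1–2 leaf stage, applied concurrently. Vehicle: non-phytotoxic solvent + surfactant. Greenhouse ~10 d; visual injury rating vs untreated controls.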

blackgrass = assay: Test C pre-/postemergence test; assay type: in vivo, Alopecurus myosuroides
Method in brief: (§1)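 Seeds were planted and treated preemergence with test chemical in a non-phytotoxic solvent mixture containing surfactant. Postemergence applications of the same formulation went onto plants 2 to 18 cm tall (1- to 4-leaf stage). A dash marks no test result.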

green foxtail = assay: Test C pre-/postemergence test; assay type: in vivo, Setaria viridis
Method in brief: as §1

common ragweed = assay: Test C pre-/postemergence test; assay type: in vivo, Ambrosia elation
Method in brief: as §1

bermudagrass = assay: Test F preemergence test; assay type: in vivo, Cynodon dactylon; conditions: scale 0 to 100
Method in brief: (§2)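 Visual ratings relative to controls, taken after 14 to 21 days in a greenhouse. Test chemicals, formulated in a surfactant-containing non-phytotoxic solvent mixture, were applied preemergence to sown seeds or postemergence to sugarcane plants.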

Surinam grass = assay: Test F preemergence test; assay type: in vivo, Brachiaria decumbens; conditions: scale 0 to 100
Method in brief: as §2

kochia = assay: Test F preemergence test; assay type: in vivo, Kochia scoparia; conditions: scale 0 to 100
Method in brief: as §2

mustard = assay: Test F preemergence test; assay type: in vivo, Brassica nigra; conditions: scale 0 to 100
Method in brief: as §2

dallisgrass = assay: Test F preemergence test; assay type: in vivo, Paspalum dilatatum; conditions: scale 0 to 100
Method in brief: as §2

prickly sida = assay: Test F preemergence test; assay type: in vivo, Sida spinosa; conditions: scale 0 to 100
Method in brief: as §2

broadleaf signalgrass = assay: Test F preemergence test; assay type: in vivo, Brachiaria platyphylla; conditions: scale 0 to 100
Method in brief: as §2

Virginia dayflower = assay: Test F preemergence test; assay type: in vivo, Commelina virginica; conditions: scale 0 to 100
Method in brief: as §2

quackgrass = assay: Test F preemergence test; assay type: in vivo, Elytrigia repens; conditions: scale 0 to 100
Method in brief: as §2

common mallow = assay: Test F preemergence test; assay type: in vivo, Malva sylvestris; conditions: scale 0 to 100
Method in brief: as §2

[1] = 62 g ai/ha, Preemergence, scale 0 to 100
[2] = 125 g ai/ha, preemergence, scale 0 (no effect) to 100 (complete control)
[3] = Preemergence, 31 g ai/ha, scale 0 to 100 (0 no effect, 100 complete control)
[4] = preemergence, 250 g ai/ha, scale 0 (no effect) to 100 (complete control)

## CCn1nc(C(F)(F)F)c(CS(=O)(=O)c2cccc[n+]2[O-])c1OCC(F)(F)F [Compound 63]
corn; Postemergence, 125 g ai/ha
  Plant response rating, Corn: 30
corn; Postemergence, 500 g ai/ha, 0 is no effect, 100 is complete control
  Corn plant response rating: 60
corn; Preemergence, 125 g ai/ha, 0 no effect, 100 complete control
  Corn plant response rating: 0
corn; Preemergence, 500 g ai/ha
  Plant response rating, Corn: 50
blackgrass; [1]
  Blackgrass plant response rating: 100
blackgrass; [2]
  Blackgrass plant response rating: 100
blackgrass; [3]
  Plant response rating, Blackgrass: 70
blackgrass; [4]
  Blackgrass plant response rating: 100
Green foxtail; [1]
  Foxtail, Green plant response rating: 100
Green foxtail; [2]
  Foxtail, Green plant response rating: 100
Green foxtail; [3]
  Plant response rating, Foxtail, Green: 95
Green foxtail; [4]
  Foxtail, Green plant response rating: 100
Common ragweed; [1]
  Ragweed plant response rating: 100
Common ragweed; [2]
  Ragweed plant response rating: 100
Common ragweed; [3]
  Plant response rating, Ragweed: 90
Common ragweed; [4]
  Ragweed plant response rating: 100
bermudagrass; 16 g ai/ha, preemergence
  Plant response rating, Bermudagrass: 50
bermudagrass; 62 g ai/ha, Preemergence
  Bermudagrass plant response rating: 95
bermudagrass; 125 g ai/ha, preemergence
  Bermudagrass plant response rating: 100
bermudagrass; Preemergence, 31 g ai/ha
  Plant response rating, Bermudagrass: 80
Surinam grass; 16 g ai/ha, preemergence
  Plant response rating, Surinam Grass: 70
Surinam grass; 125 g ai/ha, preemergence
  Surinam Grass plant response rating: 100
Surinam grass; Preemergence, 62 g ai/ha
  Plant response rating, Surinam Grass: 100
Surinam grass; Preemergence, 31 g ai/ha
  Plant response rating, Surinam Grass: 80
kochia; 16 g ai/ha, preemergence
  Plant response rating, Kochia: 0
kochia; 62 g ai/ha, Preemergence
  Kochia plant response rating: 0
kochia; 125 g ai/ha, preemergence
  Kochia plant response rating: 100
kochia; Preemergence, 31 g ai/ha
  Plant response rating, Kochia: 0
mustard; 16 g ai/ha, preemergence
  Plant response rating, Black Mustard: 0
mustard; 62 g ai/ha, Preemergence
  Black Mustard plant response rating: 50
mustard; 125 g ai/ha, preemergence
  Black Mustard plant response rating: 90
mustard; Preemergence, 31 g ai/ha
  Plant response rating, Black Mustard: 50
dallisgrass; 16 g ai/ha, preemergence
  Plant response rating, Dallisgrass: 15
dallisgrass; 62 g ai/ha, Preemergence
  Dallisgrass plant response rating: 80
dallisgrass; 125 g ai/ha, preemergence
  Dallisgrass plant response rating: 100
dallisgrass; Preemergence, 31 g ai/ha
  Plant response rating, Dallisgrass: 50
Prickly sida; 16 g ai/ha, preemergence
  Plant response rating, Prickly Sida: 20
Prickly sida; 62 g ai/ha, Preemergence
  Prickly Sida plant response rating: 65
Prickly sida; 125 g ai/ha, preemergence
  Prickly Sida plant response rating: 90
Prickly sida; Preemergence, 31 g ai/ha
  Plant response rating, Prickly Sida: 65
Broadleaf signalgrass; 16 g ai/ha, preemergence
  Plant response rating, Signalgrass: 15
Broadleaf signalgrass; 125 g ai/ha, preemergence
  Signalgrass plant response rating: 100
Broadleaf signalgrass; Preemergence, 62 g ai/ha
  Plant response rating, Signalgrass: 100
Broadleaf signalgrass; Preemergence, 31 g ai/ha
  Plant response rating, Signalgrass: 40
Virginia dayflower; 16 g ai/ha, preemergence
  Plant response rating, Dayflower: 0
Virginia dayflower; 62 g ai/ha, Preemergence
  Dayflower plant response rating: 100
Virginia dayflower; 125 g ai/ha, preemergence
  Dayflower plant response rating: 100
Virginia dayflower; Preemergence, 31 g ai/ha
  Plant response rating, Dayflower: 100
quackgrass; 16 g ai/ha, preemergence
  Plant response rating, Quackgrass: 0
quackgrass; 62 g ai/ha, Preemergence
  Quackgrass plant response rating: 95
quackgrass; 125 g ai/ha, preemergence
  Quackgrass plant response rating: 100
quackgrass; Preemergence, 31 g ai/ha
  Plant response rating, Quackgrass: 65
Common mallow; 16 g ai/ha, preemergence
  Plant response rating, Mallow: 0
Common mallow; 125 g ai/ha, preemergence
  Mallow plant response rating: 100
Common mallow; Preemergence, 31 g ai/ha
  Plant response rating, Mallow: 98
